Where two headings read alike, the source gives them in different places.
Experiments:
BTK = BTK (Homo sapiens (Human), UniProt Q06187); assay: BTK degradation in OCI-LY10 cells (Total-BTK HTRF kit); assay type: cell-based; conditions: 24 (or 6) h incubation
Description: The detection was carried out using the Total-BTK Kits (cisbio, 63ADK064PEH), and 4× Supplemented Lysis buffer was prepared using the Blocking reagent stock solution (100×) and Lysis buffer stock solution (4×). Premixed antibody solutions were prepared using the Detection buffer, Total-BTK d2 antibody, and Total-BTK Eu Cryptate antibody.
OCI-LY10 cells in a good growth state were collected and added to a centrifuge tube, adjusted to a cell density of 4.17×10^6 cells/mL, and seeded in a 384-well plate (12 μL/well). The cells were incubated overnight in a cell incubator. Compounds were added using a nanoliter pipettor such that the final concentrations of the compounds were 100 nM-0.098 nM; the addition was performed in duplicate, and meanwhile, a control was set. After another 24 (or 6) h of incubation in the cell incubator, the 4× Supplemented Lysis buffer was added at 4 μL/well to lyse the cells. After the cells were shaken for 40 min at room temperature, the Premixed antibody solutions were added at 4 μL/well, and the cells were left to stand overnight at room temperature. Fluorescence values of the cells were detected at 665 nm/620 nm using an Envision microplate reader, the four-parameter analysis was performed, the dose-response curves were fit, and DC50 (the concentration of the drug when the degradation rate reaches 50%) and Dmax (the maximum degradation rate) were calculated.

OCI-LY10 cells = assay: Inhibitory activity on OCI-LY10 cell proliferation (CCK-8); assay type: cell-based; conditions: Homo sapiens, OCI-Ly10, 72 h incubation
Description: (§1) OCI-LY10 cells in a good growth state were collected and added to a centrifuge tube, adjusted to a cell density of 1×10^5 cells/mL, and seeded in a 96-well plate (100 μL/well). The cells were incubated overnight in a cell incubator. Compounds were added using a nanoliter pipettor such that the final concentrations of the compounds were 5000 nM-0.31 nM; the addition was performed in duplicate, and meanwhile, a control was set. After another 72 h of incubation in the cell incubator, 10 μL of CCK-8 (CK04, PP799) was added. After 2.5 h of incubation in the cell incubator, absorbance values were detected at 450 nm using an Envision microplate reader, the four-parameter analysis was performed, the dose-response curves were fit, and IC50 was calculated.

[1] = tested on: OCI-LY10-BTK(C481S) cells; assay: Inhibitory activity on OCI-LY10-BTK(C481S) cell proliferation (CCK-8); assay type: cell-based; conditions: 72 h incubation, IC50 per method, unit inferred
Description: OCI-LY10(C481S) cells in the logarithmic growth phase were collected and added to a centrifuge tube, adjusted to a cell density of 5×10^4 cells/mL, and seeded in a 96-well plate (100 μL/well). Meanwhile, compounds were added using a nanoliter pipettor such that the final concentrations of the compounds were 5000 nM-0.31 nM; the addition was performed in duplicate, and meanwhile, a control was set. After another 72 h of incubation in the cell incubator, the detection reagent CCK-8 (manufacturer: Dojindo Laboratories, Beijing; 10 μL/well) was added. After 3 h of incubation in the cell incubator, absorbance values were detected at 450 nm using a PerkinElmer Envision microplate reader, the four-parameter analysis was performed, the dose-response curves were fit, and IC50 was calculated.

TMD8-BTK(C481S) cells = assay: Inhibitory activity on TMD8-BTK(C481S) cell proliferation (CCK-8); assay type: cell-based; conditions: 72 h incubation
Description: as §1, with “TMD8-BTK(C481S)” for “OCI-LY10”, “8×10^4” for “1×10^5”, “4” for “2.5”

Mouse pharmacokinetics = assay type: in vivo, ICR mice; conditions: for AUC: read-out: AUC
Description: ICR mice weighing 18-22 g were randomized into groups of 9 after 3-5 days of acclimatization and then intragastrically given the test compound solution at a dose of 10 mg/kg. Plasma samples to be tested were prepared by taking blood from the orbit at time points of 15 min, 30 min, 1 h, 2 h, 3 h, 4 h, 6 h, 8 h, 10 h, and 24 h. 20 μL of each plasma sample to be detected and a standard curve sample were taken, and an acetonitrile solution containing an internal standard was added. […] Pharmacokinetic parameters were fitted using a non-compartmental model (see Table 5).

[2] = OCI-Ly10, OCI-LY10 cells, maximum degradation rate
[3] = OCI-LY10 cells, maximum degradation rate
[4] = ICR, mouse, plasma, iv, 1 mg/kg, Mouse i.v. 1 mpk
[5] = ICR, mouse, plasma, po, 10 mg/kg, Mouse i.g. 10 mpk

Sequence of BTK (Q06187 whole entry): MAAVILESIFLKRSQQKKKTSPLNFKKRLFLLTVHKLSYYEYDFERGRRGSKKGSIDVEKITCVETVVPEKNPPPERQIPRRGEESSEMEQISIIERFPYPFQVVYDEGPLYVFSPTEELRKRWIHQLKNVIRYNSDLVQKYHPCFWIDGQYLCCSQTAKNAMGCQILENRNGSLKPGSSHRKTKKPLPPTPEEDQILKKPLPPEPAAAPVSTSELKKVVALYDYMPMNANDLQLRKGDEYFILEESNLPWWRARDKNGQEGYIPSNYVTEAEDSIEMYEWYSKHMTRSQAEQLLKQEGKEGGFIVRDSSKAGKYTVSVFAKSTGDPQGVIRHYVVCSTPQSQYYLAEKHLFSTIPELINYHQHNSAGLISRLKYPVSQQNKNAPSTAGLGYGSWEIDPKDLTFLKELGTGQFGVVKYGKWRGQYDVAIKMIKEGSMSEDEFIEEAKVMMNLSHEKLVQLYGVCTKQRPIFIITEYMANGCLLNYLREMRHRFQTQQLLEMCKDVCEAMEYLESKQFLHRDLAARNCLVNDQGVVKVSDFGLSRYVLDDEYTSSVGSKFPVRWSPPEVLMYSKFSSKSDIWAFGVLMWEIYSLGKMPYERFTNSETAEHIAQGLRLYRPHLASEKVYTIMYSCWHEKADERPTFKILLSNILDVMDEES

| SMILES | Dmax (BTK; [2]) [%] | IC50 (OCI-LY10 cells) [nM] | IC50 ([1]; 72 h) [nM] | further results |
| --- | --- | --- | --- | --- |
| CN1CCN([C@@H]2CCCN(c3cnc(C(N)=O)c(Nc4ccc(N5CCC(CN6CCc7c(ccc8c(C9CCC(=O)NC9=O)noc78)C6)CC5)cc4)n3)C2)C1=O (stereo partly drawn) [Compound 28] | > 90 | < 0.31 | 0.29 | – |
| CN1CCN([C@@H]2CCCN(c3cnc(C(N)=O)c(Nc4ccc(C5CCN(CC6CN(c7cc8onc(C9CCC(=O)NC9=O)c8c8ccccc78)C6)CC5)cc4)n3)C2)C1=O (stereo partly drawn) [Compound 96] | > 90 | < 0.31 | 0.31 | – |
| CN1CCN([C@@H]2CCCN(c3cnc(C(N)=O)c(Nc4ccc5c(c4)CCN(CC4Cc6ccc7c(C8CCC(=O)NC8=O)noc7c6C4)C5)n3)C2)C1=O (stereo partly drawn) [Compound 41] | – | < 0.31 | – | BTK degradation in OCI-LY10 cells Dmax (BTK; [3]): >90%; IC50 [1]: 0.34 nM |
| CN1CCN([C@@H]2CCCN(c3cnc(C(N)=O)c(Nc4ccc5c(c4)CCC4(CCN(CC6Cc7ccc8c(C9CCC(=O)NC9=O)noc8c7C6)CC4)O5)n3)C2)C1=O (stereo partly drawn) [Compound 77] | > 90 | < 0.31 | – | IC50 (TMD8-BTK(C481S) cells; 72 h): 23 nM |
| CN1CCN([C@@H]2CCCN(c3cnc(C(N)=O)c(Nc4ccc(C5CC6CCCC(C5)N6C5Cc6ccc7c(C8CCC(=O)NC8=O)noc7c6C5)cc4)n3)C2)C1=O (stereo partly drawn) [Compound 79] | > 90 | < 0.31 | – | IC50 (TMD8-BTK(C481S) cells; 72 h): 12 nM |
| CN1CCN([C@@H]2CCCN(c3cnc(C(N)=O)c(Nc4ccc(C5CCN(CC6Cc7ccc8c(C9CCC(=O)NC9=O)noc8c7C6)CC5)cc4)n3)C2)C1=O (stereo partly drawn) [Compound 89] | > 90 | < 0.31 | – | IC50 (TMD8-BTK(C481S) cells): 20 nM; clearance (Mouse pharmacokinetics; [4]): 1.72 mL/min/kg; half-life (Mouse pharmacokinetics; [4]): 2.8 h; AUC (Mouse pharmacokinetics; [4]): 9700 ng·h/mL; half-life (Mouse pharmacokinetics; [5]): 3 h; AUC (Mouse pharmacokinetics; [5]): 23700 ng·h/mL; Cmax (Mouse pharmacokinetics; ICR, mouse, plasma, po, 10 mg/kg, Mouse i.g. 10 mpk, read-out: Cmax): 1880 ng/mL; F (Mouse pharmacokinetics; Mouse i.g. 10 mpk): 24.5% |
| CN1CCN([C@@H]2CCCN(c3cnc(C(N)=O)c(Nc4ccc(N5CCC(CN6Cc7ccc8c(C9CCC(=O)NC9=O)noc8c7C6)CC5)cc4)n3)C2)C1=O (stereo partly drawn) [Compound 24] | > 90 | < 0.31 | 0.5 | – |
| CN1CCN([C@@H]2CCCN(c3cnc(C(N)=O)c(Nc4ccc(N5CCC(N6Cc7ccc8c(C9CCC(=O)NC9=O)noc8c7C6)CC5)cc4)n3)C2)C1=O (stereo partly drawn) [Compound 30] | – | < 0.31 | – | Dmax (BTK; [3]): > 90%; IC50 [1]: 0.44 nM |
| CN1CCN([C@@H]2CCCN(c3cnc(C(N)=O)c(Nc4ccc5c(c4)CCN(CC4Cc6ccc7c(C8CCC(=O)NC8=O)noc7c6C4)C5)n3)C2)C1=O (stereo partly drawn) [Compound 40] | > 90 | – | 0.51 | – |
| CN1CCN([C@@H]2CCCN(c3cnc(C(N)=O)c(Nc4ccc(C5CCN(C[C@H]6CCN(c7ccc8c(C9CCC(=O)NC9=O)noc8c7)C6)CC5)cc4)n3)C2)C1=O (stereo partly drawn) [Compound 1] | 99 | < 0.31 | – | DC50 (BTK; OCI-LY10 cells, DC50 = concentration when degradation rate reaches 50%, read-out: OCI-LY10 cell BTK degradation DC50): < 0.098 nM; IC50 (TMD8-BTK(C481S) cells; 72 h): 35 nM |
| CN1CCN([C@@H]2CCCN(c3cnc(C(N)=O)c(Nc4ccc(N5CCC(CN6CCc7ccc8c(C9CCC(=O)NC9=O)noc8c7C6)CC5)cc4)n3)C2)C1=O (stereo partly drawn) [Compound 26] | > 90 | < 0.31 | 0.26 | – |
| NC(=O)c1ncc(N2CCCCC2)nc1Nc1ccc(C2CCN(C[C@@H]3CCC(n4ccc5c6c(C7CCC(=O)NC7=O)noc6ccc54)C3)CC2)cc1 (stereo partly drawn) [Compound 97] | > 90 | – | 0.78 | – |
